From the supplement of paper PMC9151546

Assays:
CHO-K1 [1] = assay: benchmark concentration for 30% increase in micronucleus frequency (BMC30); higher = less potent clastogen
Method: (§1)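 Benchmark concentration modelling (PROAST, Hill/exponential model families) of the 19-concentration flow-cytometric micronucleus assay in CHO-K1 cells, with and without rat liver S9. Only non-cytotoxic and adequate (relative survival >=40%) concentrations were used. BMR was a 30% increase in %MN (BMC30) or a 60% increase in %hypodiploid (BMC60) over control.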

CHO-K1 [2] = assay: benchmark concentration for 60% increase in hypodiploid frequency (BMC60); higher = less potent aneugen
Method: as §1

[3] = S9 metabolic activation: without S9
[4] = S9 metabolic activation: with S9

Cc1cc(-c2ccc(N)c(C)c2)ccc1N [3,3'-Dimethylbenzidine]
benchmark concentration (CHO-K1 [1]; [3]): 99 µM | benchmark concentration (CHO-K1 [2]; [3]): 20 µM

OCc1ccccc1 [Benzyl alcohol]
benchmark concentration (CHO-K1 [1]; [3]): 43 µM | benchmark concentration (CHO-K1 [2]; [3]): 93 µM

O=C1NC(=O)C(c2ccccc2)(c2ccccc2)N1 [5,5-Diphenylhydantoin]
benchmark concentration (CHO-K1 [1]; [3]): 13 µM | benchmark concentration (CHO-K1 [2]; [3]): 17 µM

Cc1ccc2ncccc2c1 [6-Methylquinoline]
benchmark concentration (CHO-K1 [1]; [4]): 22 µM | benchmark concentration (CHO-K1 [2]; [4]): 51 µM | benchmark concentration (CHO-K1 [2]; [3]): 120 µM

C/C=C/C=C/C(=O)O [Sorbic acid]
benchmark concentration (CHO-K1 [1]; [3]): 29 µM | benchmark concentration (CHO-K1 [2]; [3]): 37 µM

c1ccc(/N=N/c2ccccc2)cc1 [Azobenzene]
benchmark concentration (CHO-K1 [1]; [4]): 32 µM | benchmark concentration (CHO-K1 [2]; [4]): 37 µM | benchmark concentration (CHO-K1 [2]; [3]): 87 µM

CCN(CC)N=O [N-Nitrosodiethylamine]
benchmark concentration (CHO-K1 [1]; [3]): 21 µM | benchmark concentration (CHO-K1 [2]; [3]): 31 µM

c1cc2c3c(cccc3c1)CC2 [Acenaphthene]
benchmark concentration (CHO-K1 [1]; [4]): 59 µM | benchmark concentration (CHO-K1 [1]; [3]): 78 µM | benchmark concentration (CHO-K1 [2]; [4]): 89 µM

O=C1c2c(O)cccc2Cc2cccc(O)c21 [Anthralin]
benchmark concentration (CHO-K1 [1]; [3]): 110 µM | benchmark concentration (CHO-K1 [2]; [3]): 16 µM

Nc1ccc([N+](=O)[O-])cc1 [4-Nitroaniline]
benchmark concentration (CHO-K1 [1]; [3]): 11 µM | benchmark concentration (CHO-K1 [2]; [3]): 100 µM

c1ccc2c(c1)Nc1ccccc1S2 [Phenothiazine]
benchmark concentration (CHO-K1 [1]; [4]): 17 µM | benchmark concentration (CHO-K1 [2]; [4]): 25 µM

O=C(CCl)c1ccccc1 [2-Chloroacetophenone]
benchmark concentration (CHO-K1 [1]; [4]): 60 µM | benchmark concentration (CHO-K1 [2]; [4]): 62 µM

ClC1(Cl)C2(Cl)C3(Cl)C4(Cl)C(Cl)(Cl)C5(Cl)C3(Cl)C1(Cl)C5(Cl)C24Cl (stereo not drawn) [Mirex]
benchmark concentration (CHO-K1 [1]; [3]): 36 µM | benchmark concentration (CHO-K1 [2]; [3]): 28 µM

c1ccc(NNc2ccccc2)cc1 [1,2-Diphenylhydrazine]
benchmark concentration (CHO-K1 [1]; [4]): 22 µM | benchmark concentration (CHO-K1 [1]; [3]): 46 µM | benchmark concentration (CHO-K1 [2]; [4]): 45 µM | benchmark concentration (CHO-K1 [2]; [3]): 68 µM

CC(=O)OC1CC(C)OC(C)O1 (stereo not drawn) [Dimethoxane]
benchmark concentration (CHO-K1 [1]; [4]): 86 µM | benchmark concentration (CHO-K1 [1]; [3]): 30 µM | benchmark concentration (CHO-K1 [2]; [4]): 59 µM

CC(C)(c1ccccc1)c1ccc(O)cc1 [4-Cumylphenol]
benchmark concentration (CHO-K1 [1]; [3]): 26 µM | benchmark concentration (CHO-K1 [2]; [3]): 44 µM

N#CC(Br)Br [Dibromoacetonitrile]
benchmark concentration (CHO-K1 [1]; [3]): 32 µM | benchmark concentration (CHO-K1 [2]; [3]): 15 µM

CN(C)c1ccc(Cc2ccc(N(C)C)cc2)cc1 [4,4'-Methylenebis(N,N-dimethylaniline)]
benchmark concentration (CHO-K1 [1]; [4]): 56 µM | benchmark concentration (CHO-K1 [2]; [4]): 75 µM | benchmark concentration (CHO-K1 [2]; [3]): 38 µM

CN(C)c1ccc(C(=C2C=CC(=[N+](C)C)C=C2)c2ccc(N(C)C)cc2)cc1 [Gentian Violet]
benchmark concentration (CHO-K1 [1]; [4]): 0.91 µM | benchmark concentration (CHO-K1 [2]; [4]): 0.23 µM

Cc1cc(=O)[nH]c(=S)[nH]1 [6-Methyl-2-thiouracil]
benchmark concentration (CHO-K1 [1]; [3]): < 4.5 µM | benchmark concentration (CHO-K1 [2]; [4]): 83 µM | benchmark concentration (CHO-K1 [2]; [3]): 57 µM

NC(=O)N/N=C/c1ccc([N+](=O)[O-])o1 [Nitrofurazone]
benchmark concentration (CHO-K1 [1]; [3]): 24 µM | benchmark concentration (CHO-K1 [2]; [3]): 68 µM

Nc1nc(=O)c2nc(CNc3ccc(C(=O)N[C@@H](CCC(=O)O)C(=O)O)cc3)cnc2[nH]1 [Folic acid]
benchmark concentration (CHO-K1 [1]; [4]): 57 µM | benchmark concentration (CHO-K1 [2]; [3]): 110 µM

OCCCl [2-Chloroethanol]
benchmark concentration (CHO-K1 [1]; [3]): 60 µM | benchmark concentration (CHO-K1 [2]; [3]): 130 µM

C=CCOC(=O)c1ccccc1C(=O)OCC=C [Diallyl phthalate]
benchmark concentration (CHO-K1 [1]; [4]): 61 µM | benchmark concentration (CHO-K1 [2]; [3]): 65 µM

CCNc1ccccc1 [N-Ethylaniline]
benchmark concentration (CHO-K1 [1]; [3]): 77 µM | benchmark concentration (CHO-K1 [2]; [3]): 35 µM

CN(C)C(=O)Nc1ccc(Cl)cc1 [Monuron]
benchmark concentration (CHO-K1 [1]; [3]): 8.6 µM | benchmark concentration (CHO-K1 [2]; [3]): 82 µM

O=C(OC[C@H]1O[C@@H](OC(=O)c2cc(O)c(O)c(OC(=O)c3cc(O)c(O)c(O)c3)c2)[C@H](OC(=O)c2cc(O)c(O)c(OC(=O)c3cc(O)c(O)c(O)c3)c2)[C@@H](OC(=O)c2cc(O)c(O)c(OC(=O)c3cc(O)c(O)c(O)c3)c2)[C@@H]1OC(=O)c1cc(O)c(O)c(OC(=O)c2cc(O)c(O)c(O)c2)c1)c1cc(O)c(O)c(OC(=O)c2cc(O)c(O)c(O)c2)c1 [Tannic acid]
benchmark concentration (CHO-K1 [1]; [4]): 0.9 µM | benchmark concentration (CHO-K1 [2]; [4]): 1.3 µM | benchmark concentration (CHO-K1 [2]; [3]): 0.84 µM

O=S1(=O)CCCO1 [1,3-Propane sultone]
benchmark concentration (CHO-K1 [1]; [3]): 110 µM | benchmark concentration (CHO-K1 [2]; [3]): 80 µM

NC1CCCCC1 [Cyclohexylamine]
benchmark concentration (CHO-K1 [1]; [3]): 72 µM | benchmark concentration (CHO-K1 [2]; [3]): 43 µM

Nc1cccc2c(N)cccc12 [1,5-Naphthalenediamine]
benchmark concentration (CHO-K1 [1]; [4]): 8.6 µM | benchmark concentration (CHO-K1 [2]; [3]): 66 µM

c1ccc(C2CO2)cc1 (stereo not drawn) [Styrene oxide]
benchmark concentration (CHO-K1 [1]; [3]): 96 µM | benchmark concentration (CHO-K1 [2]; [3]): 19 µM

CC(C)(OO)c1ccccc1 [Cumene hydroperoxide]
benchmark concentration (CHO-K1 [1]; [3]): 56 µM | benchmark concentration (CHO-K1 [2]; [3]): 63 µM
